Tested on: acetylated microtubule in HEK293T cells
Experiment: Microtubule-Stabilizing Activity Assay (acetylated microtubule immunoblot, HEK293T, colchicine challenge)
Assay type: cell-based
Settings: 1 h pre-incubation, then colchicine 1 μM 3 h, relative to CNDR-51657 at 500 nM = 1.00; for Microtubule-Stabilizing Activity 50 nM: compound 50 nM; for Microtubule-Stabilizing Activity 500 nM: compound 500 nM
Experimental: Compound solvent: 100% dimethyl sulfoxide (DMSO). Cell line: HEK293T (ATCC, CRL3216). Culture conditions: Cells were cultured in Dulbecco's Modified Eagle's Medium (DMEM) containing 10% fetal bovine serum and 1% penicillin/streptomycin. Cells were cultured at 37° C. in a Thermo-Fisher incubator with a humidified atmosphere of 5% carbon dioxide.
One day prior to the experiment, 100,000 cells were seeded at a density of 200,000 cells/ml in a 24-well plate.
On the day of the experiment, 20 μl of PBS phosphate buffer containing the test compound at experimental concentrations or an equivalent volume of DMSO was added to each well. After incubating at 37° C. for 1 hour, colchicine was added to each well at a final concentration of 1 μM, followed by an additional 3-hour incubation at 37° C. The plate was then placed on ice. The medium in each well was removed, and the cells were washed with ice-cold PBS. After aspirating the PBS, 0.1 mL of ice-cold RIPA lysis buffer (containing 0.5% sodium deoxycholate, 0.1% SDS, 1% NP-40, 5 mM EDTA, pH 8.0) was quickly added. Prior to use, a commercial protease inhibitor cocktail (1:500) and 1 μM deacetylase inhibitor Trichostatin A (Sangon Biotech Co., Ltd.) were added to the cell lysis buffer. The cell lysate were transferred to a 1.5 ml centrifuge tube, sonicated, and centrifuged at 13,000 rpm for 10 minutes. The supernatant was collected, and protein concentration was determined using the BCA assay.
Based on existing literature (Black, 1989; Kurt, 2011), acetylated microtubule was used as an indicator of microtubule polymerization to assess the microtubule-stabilizing efficacy of the compounds. HEK293T cell lysates were analyzed by SDS-PAGE (7.5% gel) and immunoblotted using acetylated microtubule antibody (1:20,000, Sigma-Aldrich, T7451) and α-microtubule antibody (1:2,000, Proteintech, 11224-1-AP). After incubation with fluorescent dye-conjugated IgG (1:40,000, Licor), the blots were visualized using an Odyssey-Dlx imaging system. Grayscale analysis was performed using ImageJ.
The compound activity was quantified with the microtubule-stabilizing activity of CNDR-51657 (C5) (Jane, 2016) at 500 nM as 1.00.

| Molecule | Microtubule-Stabilizing Activity 50 nM | Microtubule-Stabilizing Activity 500 nM |
| --- | --- | --- |
| 6-(4-(((1R,5S,6r)-3-Azabicyclo[3.1.0]hexan-6-yl)methoxy)-2,6-difluorophenyl)-5-methyl-N-(2,2,2-trifluoroethyl)-[1,2,4]triazolo[1,5-a]pyrimidin-7-amine [Example 35] | 0.87 | 1.80 |
| CC(C)[C@@H](C)Nc1c(-c2c(F)cc(OC3CC4(CNC4)C3)cc2F)c(Cl)nc2ncnn12 [Example 1, (R)-6-(4-((2-azaspiro[3.3]hept-6-yl)oxy)-2,6-difluorophenyl)-5-chloro-N-(3-methylbut-2-yl)-[1,2,4]triazolo[1,5-a]pyrimidin-7-amine] | 0.36 | 0.71 |
| CC(C)[C@@H](C)Nc1c(-c2c(F)cc(OC3CC4(C3)CN(C)C4)cc2F)c(Cl)nc2ncnn12 [Example 2, (R)-6-(4-((2-methyl-2-azaspiro[3.3]hept-6-yl)oxy)-2,6-difluorophenyl)-5-chloro-N-(3-methylbut-2-yl)-[1,2,4]triazolo[1,5-a]pyrimidin-7-amine] | 0.29 | 0.71 |
| C[C@H](Nc1c(-c2c(F)cc(OC3CC4(CNC4)C3)cc2F)c(Cl)nc2ncnn12)C(F)(F)F [Example 3, (S)-6-(4-((2-Azaspiro[3.3]heptan-6-yl)oxy)-2,6-difluorophenyl)-5-chloro-N-(1,1,1-trifluoropropan-2-yl)-[1,2,4]triazolo[1,5-a]pyrimidin-7-amine] | 0.36 | 0.49 |
| CC(C)[C@@H](C)Nc1c(-c2c(F)cc(OC3CC4(CCNCC4)C3)cc2F)c(Cl)nc2ncnn12 [Example 5, (R)-6-(4-((7-Azaspiro[3.5]nonan-2-yl)oxy)-2,6-difluorophenyl)-5-chloro-N-(3-methylbutan-2-yl)-[1,2,4]triazolo[1,5-a]pyrimidin-7-amine] | 0.41 | 0.76 |
| CC(C)[C@@H](C)Nc1c(-c2c(F)cc(OC3CC4(CCN(C)CC4)C3)cc2F)c(Cl)nc2ncnn12 [Example 6, (R)-6-(4-((7-Methyl-7-azaspiro[3.5]nonan-2-yl)oxy)-2,6-difluorophenyl)-5-chloro-N-(3-methylbutan-2-yl)-[1,2,4]triazolo[1,5-a]pyrimidin-7-amine] | 0.25 | 0.38 |
| C[C@H](Nc1c(-c2c(F)cc(OC3CC4(CCNCC4)C3)cc2F)c(Cl)nc2ncnn12)C(F)(F)F [Example 7, (S)-6-(4-((7-Azaspiro[3.5]nonan-2-yl)oxy)-2,6-difluorophenyl)-5-chloro-N-(1,1,1-trifluoropropan-2-yl)-[1,2,4]triazolo[1,5-a]pyrimidin-7-amine] | 0.42 | 0.81 |
| C[C@H](Nc1c(-c2c(F)cc(OC3CC4(CCN(C)CC4)C3)cc2F)c(Cl)nc2ncnn12)C(F)(F)F [Example 8, (S)-6-(4-((7-Methyl-7-azaspiro[3.5]nonan-2-yl)oxy)-2,6-difluorophenyl)-5-chloro-N-(1,1,1-trifluoropropan-2-yl)-[1,2,4]triazolo[1,5-a]pyrimidin-7-amine] | 0.43 | 0.31 |
| CNC1CC2(C1)CC(Oc1cc(F)c(-c3c(Cl)nc4ncnn4c3N[C@H](C)C(C)C)c(F)c1)C2 (stereo partly drawn) [Example 9, (R)-5-Chloro-6-(2,6-difluoro-4-((6-(methylamino)spiro[3.3]heptan-2-yl)oxy)phenyl)-N-(3-methylbutan-2-yl)-[1,2,4]triazolo[1,5-a]pyrimidin-7-amine] | 0.53 | 1.74 |
| CC(C)[C@@H](C)Nc1c(-c2c(F)cc(OC3CC4(C3)CC(N(C)C)C4)cc2F)c(Cl)nc2ncnn12 (stereo partly drawn) [Example 10, (R)-5-Chloro-6-(4-((6-(dimethylamino)spiro[3.3]heptan-2-yl)oxy)-2,6-difluorophenyl)-N-(3-methylbutan-2-yl)-[1,2,4]triazolo[1,5-a]pyrimidin-7-amine] | 0.26 | 0.28 |
| C[C@H](Nc1c(-c2c(F)cc(OC3CC4(C3)CC(N(C)C)C4)cc2F)c(Cl)nc2ncnn12)C(F)(F)F (stereo partly drawn) [Example 12, (S)-5-chloro-6-(4-((6-(dimethylamino)spiro[3.3]heptan-2-yl)oxy)-2,6-difluorophenyl)-N-(1,1,1-trifluoropropan-2-yl)-[1,2,4]triazolo[1,5-a]pyrimidin-7-amine] | 0.30 | 0.78 |
| CNC1CC2(C1)CC(Oc1cc(F)c(-c3c(Cl)nc4ncnn4c3N[C@H](C)C3CCC3)c(F)c1)C2 (stereo partly drawn) [Example 13, (R)-5-chloro-N-(1-cyclobutylethyl)-6-(2,6-difluoro-4-((6-(methylamino)spiro[3.3]heptan-2-yl)oxy)phenyl)-[1,2,4]triazolo[1,5-a]pyrimidin-7-amine] | 0.35 | 1.39 |
| C[C@@H](Nc1c(-c2c(F)cc(OC3CC4(C3)CC(N(C)C)C4)cc2F)c(Cl)nc2ncnn12)C1CCC1 (stereo partly drawn) [Example 14, (R)-5-Chloro-N-(1-cyclobutylethyl)-6-(4-((6-(dimethylamino)spiro[3.3]heptan-2-yl)oxy)-2,6-difluorophenyl)-[1,2,4]triazolo[1,5-a]pyrimidin-7-amine] | 0.23 | 1.98 |
| CNC1CC2(C1)CC(Oc1cc(F)c(-c3c(Cl)nc4ncnn4c3NCC(F)(F)F)c(F)c1)C2 (stereo not shown) [Example 15, 5-Chloro-6-(2,6-difluoro-4-((6-(methylamino)spiro[3.3]heptan-2-yl)oxy)phenyl)-N-(2,2,2-trifluoroethyl)-[1,2,4]triazolo[1,5-a]pyrimidin-7-amine] | 0.15 | 1.60 |
| CN(C)C1CC2(CC(Oc3cc(F)c(-c4c(Cl)nc5ncnn5c4NCC(F)(F)F)c(F)c3)C2)C1 (stereo not shown) [Example 16] | 0.07 | 1.66 |
| CNC1CCC2(CC1)CC(Oc1cc(F)c(-c3c(Cl)nc4ncnn4c3N[C@H](C)C(C)C)c(F)c1)C2 (stereo partly drawn) [Example 17, (R)-5-Chloro-6-(2,6-difluoro-4-((7-(methylamino)spiro[3.5]nonan-2-yl)oxy)phenyl)-N-(3-methylbutan-2-yl)-[1,2,4]triazolo[1,5-a]pyrimidin-7-amine] | 0.21 | 0.89 |
| CC(C)[C@@H](C)Nc1c(-c2c(F)cc(OC3CC4(CCC(N(C)C)CC4)C3)cc2F)c(Cl)nc2ncnn12 (stereo partly drawn) [Example 18, (R)-5-Chloro-6-(2,6-difluoro-4-((7-(dimethylamino)spiro[3.5]nonan-2-yl)oxy)phenyl)-N-(3-methylbutan-2-yl)-[1,2,4]triazolo[1,5-a]pyrimidin-7-amine] | 0.07 | 0.68 |
| CNC1CCC2(CC1)CC(Oc1cc(F)c(-c3c(Cl)nc4ncnn4c3N[C@@H](C)C(F)(F)F)c(F)c1)C2 (stereo partly drawn) [Example 19, (S)-5-Chloro-6-(2,6-difluoro-4-((7-(methylamino)spiro[3.5]nonan-2-yl)oxy)phenyl)-N-(1,1,1-trifluoropropan-2-yl)-[1,2,4]triazolo[1,5-a]pyrimidin-7-amine] | 0.16 | 0.62 |
| C[C@H](Nc1c(-c2c(F)cc(OC3CC4(CCC(N(C)C)CC4)C3)cc2F)c(Cl)nc2ncnn12)C(F)(F)F (stereo partly drawn) [Example 20, (S)-5-Chloro-6-(2,6-difluoro-4-((7-(dimethylamino)spiro[3.5]nonan-2-yl)oxy)phenyl)-N-(1,1,1-trifluoropropan-2-yl)-[1,2,4]triazolo[1,5-a]pyrimidin-7-amine] | 0.05 | 1.32 |
| CC(C)[C@@H](C)Nc1c(-c2c(F)cc(OCC3[C@H]4CNC[C@@H]34)cc2F)c(Cl)nc2ncnn12 (stereo partly drawn) [Example 21, 6-(4-(((1R,5S,6r)-3-Azabicyclo[3.1.0]hexan-6-yl)methoxy)-2,6-difluorophenyl)-5-chloro-N—((R)-3-methylbutan-2-yl)-[1,2,4]triazolo[1,5-a]pyrimidin-7-amine] | 1.27 | 1.60 |
